Where “and” joins values, the source holds several entries; their conditions need not be identical. Equal values may be shown once.
Tests used:
[1] = target: T1, human GGPPS (Homo sapiens, UniProt O95749); assay: GGPPS enzymatic inhibition assay; format: biochemical; settings: read-out: GGPPS Ki, in vitro
T1 sequence (O95749 1-300): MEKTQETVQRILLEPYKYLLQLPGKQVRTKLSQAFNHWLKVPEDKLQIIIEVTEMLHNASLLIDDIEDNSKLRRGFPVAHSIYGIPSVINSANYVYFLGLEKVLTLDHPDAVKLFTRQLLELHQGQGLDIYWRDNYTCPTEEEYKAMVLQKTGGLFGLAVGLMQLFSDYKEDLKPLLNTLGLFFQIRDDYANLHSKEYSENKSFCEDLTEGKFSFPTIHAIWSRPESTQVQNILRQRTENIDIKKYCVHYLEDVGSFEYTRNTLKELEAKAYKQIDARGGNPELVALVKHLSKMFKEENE

[2] = system: HRAS, KRAS and RAP1A prenylation in U2OS cells expressing Flag-KRAS G12D; assay: cell fractionation assay of protein prenylation; format: cell-based; settings: 48 h, BPH-1222 10 μM, BPH-714 10 μM, zoledronate 20 μM
[3] = system: GTP-bound KRAS in mouse lung cancer cells (M3L2); assay: KRAS-GTP pull-down with RAF-1 RBD beads; format: cell-based; settings: 48 h
[4] = system: CHOP, BiP, LC3 in mouse lung cancer cells (6#); assay: ER stress and autophagy markers by immunoblotting; format: cell-based
[5] = pharmacokinetics test; format: in vivo; settings: single i.v. injection 5 mg/kg, female SD rats
[6] = system: Mouse lung cancer cells (6#); assay: drug treatment of 6# cells, phase-contrast microscopy; format: cell-based; settings: for effect on cell proliferation / cell death: FTI-277 15 μM, GGTI-298 15 μM, BPH-1222 10 μM
[7] = system: FPPS; settings: cited from earlier work
[8] = system: p70 S6 kinase and 4E-BP1 phosphorylation in mouse lung cancer cells (6#); assay: mTOR substrate phosphorylation by immunoblotting; format: cell-based; settings: 6# cells, rapamycin 0.1 μM, 48 h
[9] = system: KRAS tumors; assay: zoledronate plus rapamycin in vivo; settings: fig. S4D, E

## CCCCCCCCn1cc[n+](CC(O)(P(=O)([O-])O)P(=O)(O)O)c1 (centres unmarked) [BPH-1222]
[1]
  Ki: ~0.3 µM and 0.3 µM
[2]
  inhibition of protein farnesylation and geranylgeranylation (HRAS degradation, RAP1A dislodgement): robustly inhibited protein farnesylation as well as protein geranylgeranylation
[3]
  amount of GTP-bound KRAS: greatly reduced the amount of GTP-bound KRAS
[4]; 6# cells, 10 μM, 1, 2, or 3 days
  ER stress markers CHOP and BiP protein levels: potently induced
[4]; tumor cells treated with BPH-1222
  time to autophagy induction (accumulation of PE-conjugated LC3): 2 to 3 days
[5]
  pharmacokinetic properties: good pharmacokinetic properties

## COC(=O)[C@H](CCSC)NC(=O)c1ccc(NC[C@@H](N)CS)cc1-c1ccccc1 [FTI-277]
[6]
  effect on cell proliferation / cell death: little effect on cell proliferation

## CC(C)=CCC/C(C)=C/CC/C(C)=C/CC/C(C)=C/CO [GGOH, geranylgeraniol]
[6]; supplementation 10 μM with BPH-1222 10 μM, 48 h
  rescue from bisphosphonate-induced cell death: substantially rescued cells

## COC(=O)[C@H](CC(C)C)NC(=O)c1ccc(NC[C@@H](N)CS)cc1-c1cccc2ccccc12 [GGTI-298]
[6]
  effect on cell proliferation / cell death: little effect on cell proliferation

## NCCCC(O)(P(=O)(O)O)P(=O)(O)O [alendronate]
[7]
  FPPS inhibition: inhibit FPPS

## CO[C@H]1C[C@@H]2CC[C@@H](C)[C@@](O)(O2)C(=O)C(=O)N2CCCC[C@H]2C(=O)O[C@H]([C@H](C)C[C@@H]2CC[C@@H](O)[C@H](OC)C2)CC(=O)[C@H](C)/C=C(\C)[C@@H](O)[C@@H](OC)C(=O)[C@H](C)C[C@H](C)/C=C/C=C/C=C/1C [rapamycin]
[8]
  phosphorylation of mTOR substrates (p70 S6 kinase and 4E-BP1): potently blocked phosphorylation

## O=P(O)(O)C(O)(Cc1cccnc1)P(=O)(O)O [risedronate]
[7]
  FPPS inhibition: inhibit FPPS

## O=P(O)(O)C(O)(Cn1ccnc1)P(=O)(O)O [zoledronate]
[9]
  synergy with rapamycin for killing KRAS tumors: synergizes with rapamycin in vivo
[7]
  FPPS inhibition: inhibit FPPS

Source: publication PMC4326221 (Science translational medicine, 2014)
